{"source": "patent US6020374A", "about": "“Biologically active synthetic dye compounds” (priority 1998, dated 2000)", "assay_type_in_all_cases": "cell-based", "key": {"[1]": {"system": "MAPK-1 (44 kDa) and MAPK-2 (42 kDa)", "test": "Activation of MAPKs in MCF-7 cells (anti-active MAPK immunoblot)", "settings": "5 mins., ATA, EB each at 300 μg/ml, IGF-1 20 or 40 ng/ml", "experimental": "FIG. 7 is the effect of ATA and EB on activation of MAPKs: MCF-7 cells were treated for 5 mins. with ATA, EB, each at 300 μg/ml, 20 ng/ml or 40 ng/ml IGF-1. Cell lysates, solubilized in Buffer C, were subjected to 12% SDS-PAGE and immunoblotted with an anti-active MAPK antibody. The membrane, after ECL detection, was stripped of bound antibody and blotted with an anti-MAPK antibody.\nNitrocellulose blots of proteins were incubated with the antibodies, and proteins were detected by enhanced chemiluminescence using horseradish peroxidase-labeled protein A, horseradish peroxidase-labeled anti rabbit IgG or horseradish peroxidase-labeled anti-mouse IgG.\nThe activated forms of MAPKs were detected by anti-active MAPK immunoblotting in the MCF-7 cell's lysates. […] Blotting with anti MAPKs antibodies confirms that similar amounts of MAPKs were present in treated and non-treated cells."}, "MCF-7 cells": {"system": "MCF-7 cells", "test": "Cell death estimation, cycloheximide-exposed MCF-7 cells (trypan blue)", "settings": "for Effect on percent of dead cells: cells exposed to CX for 48 hours, compared with Control not exposed to CX", "experimental": "Subconfluent cultures of MCF-7 cells in 35 mm dishes, were deprived of serum for 20 hours and then exposed to 30 μg/ml cycloheximide in the presence or absence of increasing concentrations of fractionated ATA, crude ATA or EB. After 48 hours, the cells were detached with trypsin. The medium and the detached cells were pooled and centrifuged at 1000×g for 10 mins. Cell viability was estimated by adding an equivalent volume of trypan blue solution to an aliquot of suspended cells. Stained and unstained cells were counted on a hemocytometer (10^3 cells were counted for each determination).\nSubconfluent, 20 hours starved MCF-7 cells were exposed to 30 μg/ml\nof cycloheximide in the presence of increasing\nconcentrations of fractionated ATA (0, 6, 12, 25, 50 μg/ml). After\n48 hours, percent of dead cells was\ndetermined as described under \"Experimental procedures\". In the\npresence of cycloheximide only, 60-70% of\nthe cells were dead after 48 hours.\nCultures of […] cells were exposed to 30 μg CX for 48 hours in the presence of EB, ATA, IGF-1, or nothing."}, "3T3 L1 adipocytes [2]": {"system": "3T3 L1 adipocytes", "test": "2-deoxyglucose uptake in 3T3 L1 adipocytes", "settings": "20 mins., EB, ATA 200 μg/ml, insulin 600 ng/ml", "experimental": "(§1) FIG. 11 is the metabolic effects in 3T3 L1 adipocytes: Fully differentiated 3T3 L1 adipocytes were incubated with EB, ATA or fuchsin (FUCH) each at 200 μg/ml, or with 600 ng/ml of insulin for 20 mins. (A, B, C) or 5 mins. (D). CON indicates no additive.\nA--2-deoxyglucose uptake. Hexose uptake was measured for 10 mins. using 50 μM 2-deoxy-(^3 H) glucose (1 μCi/ml). Non-specific uptake was determined in the presence of cytochalasin B (50 μM)."}, "3T3 L1 adipocytes [3]": {"system": "3T3 L1 adipocytes", "test": "Lipogenesis in 3T3 L1 adipocytes", "settings": "20 mins., EB, ATA 200 μg/ml, insulin 600 ng/ml", "experimental": "as §1\nC--Lipogenesis. Cells were incubated with 5 mM(U-^14 C) glucose (1 μCi/ml) for 60 mins. Radioactivity was determined in the cellular lipid fraction."}, "IGF-1 receptor β subunit": {"target": "T1, IGF-1 receptor β subunit (Homo sapiens, UniProt P08069)", "T1 construct": "endogenous in cells; host or cells: MCF-7", "T1 sequence (P08069 741-1367 limits assumed)": "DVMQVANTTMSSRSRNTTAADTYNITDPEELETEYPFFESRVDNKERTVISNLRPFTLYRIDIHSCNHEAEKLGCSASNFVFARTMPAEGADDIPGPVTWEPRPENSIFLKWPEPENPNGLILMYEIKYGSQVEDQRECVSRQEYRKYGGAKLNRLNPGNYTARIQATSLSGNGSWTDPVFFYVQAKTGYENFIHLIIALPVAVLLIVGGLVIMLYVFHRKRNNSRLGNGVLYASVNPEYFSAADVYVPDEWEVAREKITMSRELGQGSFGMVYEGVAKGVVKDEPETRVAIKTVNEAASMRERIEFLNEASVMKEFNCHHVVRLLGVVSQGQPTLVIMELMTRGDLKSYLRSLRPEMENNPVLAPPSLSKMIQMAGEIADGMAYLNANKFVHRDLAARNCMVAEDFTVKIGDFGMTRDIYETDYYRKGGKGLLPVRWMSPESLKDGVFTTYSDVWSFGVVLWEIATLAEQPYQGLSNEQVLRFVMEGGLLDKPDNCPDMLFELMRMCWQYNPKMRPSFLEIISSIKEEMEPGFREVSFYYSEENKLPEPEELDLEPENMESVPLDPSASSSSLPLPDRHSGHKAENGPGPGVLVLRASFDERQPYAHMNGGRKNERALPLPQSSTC", "T1 sequence (P08069 31-736 limits assumed)": "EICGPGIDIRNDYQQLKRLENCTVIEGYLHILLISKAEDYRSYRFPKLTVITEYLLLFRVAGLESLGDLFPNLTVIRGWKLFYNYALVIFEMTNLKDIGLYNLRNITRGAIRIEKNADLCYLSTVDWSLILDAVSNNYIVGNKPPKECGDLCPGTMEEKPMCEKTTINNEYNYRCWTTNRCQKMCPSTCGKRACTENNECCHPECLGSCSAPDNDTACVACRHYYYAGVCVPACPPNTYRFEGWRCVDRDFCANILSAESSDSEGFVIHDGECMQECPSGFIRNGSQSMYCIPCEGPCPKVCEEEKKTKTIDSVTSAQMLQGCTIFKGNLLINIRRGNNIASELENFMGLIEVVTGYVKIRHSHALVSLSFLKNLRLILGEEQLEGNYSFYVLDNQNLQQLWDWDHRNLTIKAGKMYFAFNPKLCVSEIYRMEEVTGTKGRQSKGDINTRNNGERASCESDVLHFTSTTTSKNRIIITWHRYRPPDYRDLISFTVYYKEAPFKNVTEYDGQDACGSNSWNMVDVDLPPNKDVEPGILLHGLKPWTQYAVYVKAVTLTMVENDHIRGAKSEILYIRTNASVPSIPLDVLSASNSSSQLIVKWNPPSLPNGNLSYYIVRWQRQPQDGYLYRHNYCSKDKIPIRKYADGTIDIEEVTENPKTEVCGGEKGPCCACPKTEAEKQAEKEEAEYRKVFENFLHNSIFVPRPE", "test": "Tyrosine phosphorylation of IGF-1 receptor in MCF-7 cells", "settings": "5 mins., ATA, EB each at 300 μg/ml", "experimental": "FIG. 6 is the effect of ATA and EB on tyrosine phosphorylation of IGF-1 receptor: MCF-7 cells, grown in 100 mm dishes, were treated with ATA, EB each at 300 μg/ml, or 20 ng/ml IGF-1 for 5 mins. Total cell extracts, solubilized in Buffer A, were immunoprecipitated with IGF1R antibody. The immunocomplexes precipitataed with protein G-Sepharose beads, were subjected to 7.5% SDS-PAGE followed by immunoblotting with a phosphotyrosine antibody. The membrane, after ECL detection, was stripped of bound antibody and reblotted with IGF1R antibody (IGF1R).\nCells were solubilized in Buffer A or C. Extracts were immunoprecipitated at 4° C. with antibodies to IRS-1, IRS-2, IGF-1 or IR receptor or Grb2, adsorbed on protein A-Sepharose beads. The immunocomplexes were pelleted by centrifugation at 12,000×g and washed twice with Buffer A, and twice with Buffer A containing 0.1% Triton x-100. The pellets were then suspended in Laemmli sample buffer and resolved on 7.5% SDS-PAGE.\nNitrocellulose blots of proteins were incubated with the antibodies, and proteins were detected by enhanced chemiluminescence using horseradish peroxidase-labeled protein A, horseradish peroxidase-labeled anti rabbit IgG or horseradish peroxidase-labeled anti-mouse IgG. […]"}}}
{"smiles": "O=C(O)C1=CC(=C(c2ccc(O)c(C(=O)O)c2)c2ccc(O)c(C(=O)O)c2)C=CC1=O", "note": "[ATA, Aurintricarboxylic acid]", "values": [{"measurement": "Phosphorylated (active) isoforms MAPK-1 and MAPK-2", "setting": "[1]", "value": "clearly detected"}, {"measurement": "Percent dead cells", "setting": "MCF-7 cells; 30 μg CX, 48 hours, ATA 100 μg/ml", "value": "8 ± 3", "unit": "%"}, {"measurement": "IC50", "setting": "MCF-7 cells; Homo sapiens, MCF7, starved MCF-7 cells, 30 μg/ml cycloheximide, 48 hours, read-out: IC50, concentration which inhibits 50% of cell death induced by cycloheximide", "value": 18, "unit": "µg/mL"}, {"measurement": "Effect on percent of dead cells", "setting": "MCF-7 cells", "value": "reduced the percent of dead cells to that observed in cells not exposed to CX"}, {"measurement": "Glucose uptake", "setting": "3T3 L1 adipocytes [2]", "value": "increase glucose uptake"}, {"measurement": "Lipogenesis", "setting": "3T3 L1 adipocytes [3]", "value": "increase"}, {"measurement": "Tyrosine phosphorylation of IGF-1 receptor β subunit", "setting": "IGF-1 receptor β subunit", "value": "phosphorylated the IGF-1 receptor β subunit"}]}
{"smiles": "Cc1cc(-c2ccc(N=Nc3ccc4c(S(=O)(=O)O)cc(S(=O)(=O)O)c(N)c4c3O)c(C)c2)ccc1N=Nc1ccc2c(S(=O)(=O)O)cc(S(=O)(=O)O)c(N)c2c1O", "note": "[EB, Evan's Blue]", "values": [{"measurement": "Phosphorylated (active) isoforms MAPK-1 and MAPK-2", "setting": "[1]", "value": "clearly detected"}, {"measurement": "Effect on percent of dead cells", "setting": "MCF-7 cells", "value": "reduced the percent of dead cells to that observed in cells not exposed to CX"}, {"measurement": "Glucose uptake", "setting": "3T3 L1 adipocytes [2]", "value": "increase glucose uptake"}, {"measurement": "Lipogenesis", "setting": "3T3 L1 adipocytes [3]", "value": "increase"}, {"measurement": "Tyrosine phosphorylation of IGF-1 receptor β subunit", "setting": "IGF-1 receptor β subunit", "value": "phosphorylated the IGF-1 receptor β subunit"}]}
